Data as given in patent US20100076010A1, “ALPHA 1A-ADRENOCEPTOR ANTAGONISTS” (CONCERT Pharmaceuticals, Inc., priority 2007, published 2010).

Assay: Evaluation of metabolic stability in human liver microsomes
Type: in vitro ADME
Details: for half-life at 1 μM: in vitro t1/2, 0.5 mg/mL human liver microsomes, 1 μM test compound, 2 mM NADPH, pH 7.4, 37° C., 0-30 minutes, average of two experiments, read-out: Half-life (t1/2) (min) ± SD; for Increase over Silodosin (%): increase of HLM half-life relative to silodosin
Experimental: Evaluation of Metabolic Stability in Human Liver Microsomes. Human liver microsomes (“HLM”; 20 mg/mL) were obtained from Xenotech, LLC (Lenexa, Kans.). β-nicotinamide adenine dinucleotide phosphate, reduced form (NADPH), magnesium chloride (MgCl2), and dimethyl sulfoxide (DMSO) were purchased from Sigma-Aldrich.
Stock solutions of Compounds 108, 110, 111 and silodosin (7.5 mM) were separately prepared in DMSO. The 7.5 mM stock solutions were diluted to 50 μM in acetonitrile (ACN). The 20 mg/mL human liver microsomes were diluted to 0.625 mg/mL in 0.1 M potassium phosphate buffer, pH 7.4, containing 3 mM MgCl2. The diluted microsomes (375 μL) were added to wells of a 96-well deep-well polypropylene plate in triplicate. Ten μL of the 50 μM test compound solution was added to the microsomes and the mixture was pre-warmed for 10 minutes. Reactions were initiated by addition of 125 μL, of pre-warmed NADPH solution (8 mM NADPH in 0.1M potassium phosphate buffer, pH 7.4, containing 3 mM MgCl2). The final reaction volume was 0.5 mL and contains 0.5 mg/mL human liver microsomes, 1 μM test compound, and 2 mM NADPH in 0.1 M potassium phosphate buffer, pH 7.4, and 3 mM MgCl2. The reaction mixtures were incubated at 37° C., and 50 μL aliquots were removed at 0, 5, 10, 20, and 30 minutes and added to shallow-well 96-well plates which contain 50 μL of ice-cold ACN with internal standard to stop the reactions. The plates were stored at 4° C. for 20 minutes after which 100 μL of water was added to the wells of the plate before centrifugation to pellet precipitated proteins. Supernatants were transferred to another 96-well plate and analyzed for amounts of parent remaining by LC-MS/MS using an Applied Bio-systems API 4000 mass spectrometer.
The in vitro t1/2s for test compounds were calculated from the slopes of the linear regression of % parent remaining (ln) vs incubation time relationship. in vitro t1/2=0.693/k, where k=−[slope of linear regression of % parent remaining(ln) vs incubation time]. The experiment was performed twice. Data analysis was performed using Microsoft Excel Software.

SMILES | half-life at 1 μM [min] | Increase over Silodosin (%)
[2H]C([2H])(O)C([2H])([2H])C([2H])([2H])N1CCc2cc(C[C@@H](C)NC([2H])([2H])C([2H])([2H])Oc3ccccc3OC([2H])([2H])C(F)(F)F)cc(C(N)=O)c21 [Compound 108, (R)-1-(3-Hydroxy-(1,1,2,2,3,3-d6)-propyl)-5-(2-(2-(2-(2,2,2-trifluoro-1,1-d2-ethoxy)phenoxy)-(1,1,2,2-d4)-ethylamino)propyl)indoline-7-carboxamide] | 44 ± 1.2 | 21
[2H]C([2H])(N[C@H](C)Cc1cc2c(c(C(N)=O)c1)N(CCCO)CC2)C([2H])([2H])Oc1ccccc1OC([2H])([2H])C(F)(F)F [Compound 110, (R)-1-(3-hydroxypropyl)-5-(2-(2-(2-(2,2,2-d2-trifluoroethoxy)phenoxy)-d4-ethylamino)propyl)indoline-7-carboxamide] | 43 ± 10 | 17
[2H]C([2H])(O)C([2H])([2H])C([2H])([2H])N1CCc2cc(C[C@@H](C)NCCOc3ccccc3OCC(F)(F)F)cc(C(N)=O)c21 [Compound 111, (R)-1-(3-Hydroxy-(1,1,2,2,3,3-d6)-propyl)-5-(2-(2-(2-(2,2,2-trifluoroethoxy)-phenoxy)ethylamino)propyl)indoline-7-carboxamide] | 32 ± 0.1 | 0
C[C@H](Cc1cc2c(c(C(N)=O)c1)N(CCCO)CC2)NCCOc1ccccc1OCC(F)(F)F [Silodosin, (R)-1-(3-hydroxypropyl)-5-(2-(2-(2-(2,2,2-trifluoroethoxy)phenoxy)ethylamino)-propyl)indoline-7-carboxamide, reference compound] | 37 ± 0.1 | –
